Assay results from publication PMC9670689 (ACS Omega, 2022).
≈ marks a conversion by molar mass, not a printed value.

Experiments:
[1] = system: Seasonal influenza A/Egypt/NRC098/2019(H1N1); test: microbe, parasite or virus in culture; assay type: cell-based, seasonal human influenza A/H1N1 virus; settings: H1N1, MDCK, in Homo sapiens
neuraminidase = test: Colorimetric neuraminidase inhibition assay; assay type: biochemical

CC1=C2[C@H]3OC(=O)[C@@H](C)[C@@H]3CC[C@@]2(C)C=CC1=O [santonin]
IC50 [1]: 2.91 µg/mL (≈ 11.8 µM) | neuraminidase inhibition activity (in words) (neuraminidase; all tested concentrations (10 mM to 1 μM), compared to zanamivir): dose-dependant neuraminidase inhibition activities | neuraminidase activity (neuraminidase; following treatment with 1 μM): 0.65 ± 0.18 units/mL | neuraminidase activity (neuraminidase; following treatment with 10 μM): 0.42 ± 0.08 units/mL | neuraminidase activity (neuraminidase; following treatment with 100 μM): 0.41 ± 0.06 units/mL | neuraminidase activity (neuraminidase; following treatment with 1 mM): 0.35 ± 0.11 units/mL | neuraminidase activity (neuraminidase; following treatment with 10 mM): 0.14 ± 0.097 units/mL | toxic effect in MDCK cells (in words) (MDCK cells): slightly toxic effect
